Where “and” joins values, the source holds several entries; their conditions need not be identical. Equal values may be shown once. Toxic doses and inconclusive results are not listed.
Tested on: B6C3F1 mice, intracerebral ependymoblastoma, median survival T/C
Experiment: NCI In Vivo Anticancer Drug Screen. Data for tumor model Ependymoblastoma (intracerebral) in B6C3F1 mice
Conditions: endpoint: median survival time, higher = longer survival
Protocol: The antitumor activity of compounds was measured in mice bearing transplantable tumors. Survival or tumor size were measured and the results are expressed as the measurement made in the treated group (T) divided by the measurement made in the vehicle treated control group (C). The tumor model used in this assay is Ependymoblastoma (intracerebral) in B6C3F1 mice

[1] = dose: 128.0 mg/kg/injection, schedule: Q01DX005 (ip), vehicle: saline
[2] = dose: 256.0 mg/kg/injection, schedule: Q01DX005 (ip), vehicle: saline
[3] = dose: 512.0 mg/kg/injection, schedule: Q01DX005 (ip), vehicle: saline

## NC(=O)N(CCCl)N=O
dose: 1.0 mg/kg/injection, schedule: Q01DX001 (ip), vehicle: saline + alcohol
  T/C: 121 % of control
dose: 4.0 mg/kg/injection, schedule: Q01DX001 (ip), vehicle: saline + alcohol
  T/C: 184 % of control

## CCCCC(=O)OCC1OC(n2cnc3c(=S)nc[nH]c32)C(OC(=O)CCCC)C1OC(=O)CCCC (configuration not stated)
dose: 25.0 mg/kg/injection, schedule: Q01DX005 (ip), vehicle: saline with Tween-80
  T/C: 116 % of control
dose: 50.0 mg/kg/injection, schedule: Q01DX005 (ip), vehicle: saline with Tween-80
  T/C: 99 % of control
dose: 100.0 mg/kg/injection, schedule: Q01DX005 (ip), vehicle: saline with Tween-80
  T/C: 103 % of control

## CC(C)[C@](O)(C(=O)OCC1=CC[N+]2([O-])CC[C@@H](O)[C@@H]12)[C@H](C)O (some centres not stated)
dose: 32.0 mg/kg/injection, schedule: Q01DX005 (ip), vehicle: saline
  T/C: 104 % of control
dose: 64.0 mg/kg/injection, schedule: Q01DX005 (ip), vehicle: saline
  T/C: 98 % of control and 101 % of control
[1]
  T/C: 95 % of control and 100 % of control
[2]
  T/C: 103 % of control and 108 % of control
[3]
  T/C: 94 % of control and 117 % of control

## CCN(CC)c1ccc2cc3ccc(=[N+](CC)CC)cc-3oc2c1
dose: 2.0 mg/kg/injection, schedule: Q01DX005 (ip), vehicle: saline
  T/C: 110 % of control
dose: 4.0 mg/kg/injection, schedule: Q01DX005 (ip), vehicle: saline
  T/C: 90 % of control
dose: 8.0 mg/kg/injection, schedule: Q01DX005 (ip), vehicle: saline
  T/C: 93 % of control

## Nc1n[nH]c(N)n1
[1]
  T/C: 93 % of control and 88 % of control
[2]
  T/C: 95 % of control and 100 % of control
[3]
  T/C: 92 % of control and 103 % of control
dose: 1024.0 mg/kg/injection, schedule: Q01DX005 (ip), vehicle: saline
  T/C: 118 % of control and 87 % of control

## O=NN(CCCl)C(=O)NC1CCCN(Cc2ccccc2)C1 (configuration not stated)
dose: 50.0 mg/kg/injection, schedule: Q01DX001 (ip), vehicle: distilled water + Tween-80
  T/C: 178 % of control
dose: 100.0 mg/kg/injection, schedule: Q01DX001 (ip), vehicle: distilled water + Tween-80
  T/C: 223 % of control

## CCCN(C)C(=O)N(CCCl)N=O
dose: 19.4 mg/kg/injection, schedule: Q01DX001 (ip), vehicle: DMSO
  T/C: 116 % of control
dose: 31.3 mg/kg/injection, schedule: Q01DX001 (ip), vehicle: saline + alcohol
  T/C: 320 % of control
dose: 32.4 mg/kg/injection, schedule: Q01DX001 (ip), vehicle: DMSO
  T/C: 169 % of control
dose: 54.0 mg/kg/injection, schedule: Q01DX001 (ip), vehicle: DMSO
  T/C: 239 % of control
dose: 62.5 mg/kg/injection, schedule: Q01DX001 (ip), vehicle: saline + alcohol
  T/C: 324 % of control
dose: 90.0 mg/kg/injection, schedule: Q01DX001 (ip), vehicle: DMSO
  T/C: 368 % of control
dose: 125.0 mg/kg/injection, schedule: Q01DX001 (ip), vehicle: saline + alcohol
  T/C: 110 % of control
dose: 150.0 mg/kg/injection, schedule: Q01DX001 (ip), vehicle: DMSO
  T/C: 366 % of control
dose: 250.0 mg/kg/injection, schedule: Q01DX001 (ip), vehicle: DMSO
  T/C: 365 % of control

## Nc1nc(SCc2ccccc2Cl)c2ncn(C3OC(CO)C(O)C3O)c2n1 (configuration not stated)
dose: 12.5 mg/kg/injection, schedule: Q01DX005 (ip), vehicle: Klucel (hydroxypropylcellulose) (HPC)
  T/C: 103 % of control and 104 % of control
dose: 25.0 mg/kg/injection, schedule: Q01DX005 (ip), vehicle: Klucel (hydroxypropylcellulose) (HPC)
  T/C: 98 % of control
dose: 50.0 mg/kg/injection, schedule: Q01DX005 (ip), vehicle: Klucel (hydroxypropylcellulose) (HPC)
  T/C: 110 % of control and 119 % of control

## Cc1ncc(CO)c(C)c1O
dose: 128.0 mg/kg/injection, schedule: Q01DX005 (ip), vehicle: Klucel (hydroxypropylcellulose) (HPC)
  T/C: 102 % of control and 108 % of control
dose: 256.0 mg/kg/injection, schedule: Q01DX005 (ip), vehicle: Klucel (hydroxypropylcellulose) (HPC)
  T/C: 101 % of control and 105 % of control

## S=c1nc[nH]c2nc[nH]c12
dose: 10.0 mg/kg/injection, schedule: Q01DX001 (ip), vehicle: Klucel (hydroxypropylcellulose) (HPC)
  T/C: 92 % of control and 99 % of control and 101 % of control
dose: 20.0 mg/kg/injection, schedule: Q01DX001 (ip), vehicle: Klucel (hydroxypropylcellulose) (HPC)
  T/C: 98 % of control and 100 % of control and 107 % of control
dose: 40.0 mg/kg/injection, schedule: Q01DX001 (ip), vehicle: Klucel (hydroxypropylcellulose) (HPC)
  T/C: 100 % of control and 103 % of control (2×)
dose: 80.0 mg/kg/injection, schedule: Q01DX001 (ip), vehicle: Klucel (hydroxypropylcellulose) (HPC)
  T/C: 95 % of control and 103 % of control and 107 % of control
dose: 160.0 mg/kg/injection, schedule: Q01DX001 (ip), vehicle: Klucel (hydroxypropylcellulose) (HPC)
  T/C: 100 % of control and 101 % of control and 116 % of control

## C1CN1c1nc(N2CC2)nc(N2CC2)n1
dose: 0.06 mg/kg/injection, schedule: Q01DX005 (ip), vehicle: saline
  T/C: 110 % of control
dose: 0.13 mg/kg/injection, schedule: Q01DX005 (ip), vehicle: saline
  T/C: 106 % of control and 119 % of control
dose: 0.25 mg/kg/injection, schedule: Q01DX005 (ip), vehicle: saline
  T/C: 115 % of control and 124 % of control
dose: 1.0 mg/kg/injection, schedule: Q01DX005 (ip), vehicle: saline
  T/C: 189 % of control and 238 % of control
